Reference: the NIST ThermoML archive (doi:10.1016/j.jct.2011.12.010)

Settings: for molar entropy: 101.33 kPa, Vacuum adiabatic calorimetry

CC(C)(C)Cc1ccccc1 [(2,2-dimethylpropyl)benzene]
Settings	Triple point temperature [K]	molar entropy [J/K/mol]
5 K, Crystal	–	0.1197
10 K, Crystal	–	0.956
15 K, Crystal	–	3.026
20 K, Crystal	–	6.298
25 K, Crystal	–	10.58
30 K, Crystal	–	15.48
35 K, Crystal	–	20.64
40 K, Crystal	–	25.96
45 K, Crystal	–	31.32
50 K, Crystal	–	36.64
60 K, Crystal	–	46.98
70 K, Crystal	–	57.07
80 K, Crystal	–	66.82
90 K, Crystal	–	76.28
100 K, Crystal	–	85.56
110 K, Crystal	–	94.62
120 K, Crystal	–	103.5
130 K, Crystal	–	112.2
140 K, Crystal	–	120.9
150 K, Crystal	–	129.4
160 K, Crystal	–	137.8
170 K, Crystal	–	146.1
180 K, Crystal	–	154.2
190 K, Crystal	–	162.5
200 K, Crystal	–	170.5
210 K, Crystal	–	178.6
220 K, Crystal	–	186.7
230 K, Crystal	–	194.6
240 K, Crystal	–	202.5
250 K, Crystal	–	210.4
255.43 K, Crystal	–	214.7
255.43 K, Liquid	–	274.9
260 K, Liquid	–	279.4
270 K, Liquid	–	288.9
280 K, Liquid	–	298.4
290 K, Liquid	–	307.7
298.15 K, Liquid	–	315.2
300 K, Liquid	–	316.9
310 K, Liquid	–	325.8
320 K, Liquid	–	334.7
330 K, Liquid	–	343.4
340 K, Liquid	–	351.9
350 K, Liquid	–	360.4
Crystal, Adiabatic calorimetry	255.43	–
